Patent US20090137664A1, “SAURURUS CERNUUS COMPOUNDS THAT INHIBIT CELLULAR RESPONSES TO HYPOXIA” (priority 2003, published 2009)

Experiments:
RXF 393 = assay: NCI in vitro cell line screen (SRB), Renal Cancer RXF 393; format: cell-based
Procedure: (§1) For exemplary purposes, an embodiment of the present invention was tested for activity with respect to certain cancer cell lines. The following Tables show results from in vitro 60-cell line antitumor testing from the US National Cancer Institute Developmental Therapeutics Program (NCI-DTP) on compound 2. The testing was in connection with the NCI's In Vitro Cell Line Screening Project (IVCLSP). Detailed information regarding the experiments and their interpretation is available from the NCI.

UACC-62 = assay: NCI in vitro cell line screen (SRB), Melanoma UACC-62; format: cell-based
Procedure: as §1

K-562 = assay: NCI in vitro cell line screen (SRB), Leukemia K-562; format: cell-based
Procedure: as §1

SK-MEL-2 = assay: NCI in vitro cell line screen (SRB), Melanoma SK-MEL-2; format: cell-based
Procedure: as §1

HIF-1β protein = assay: Western blot, HIF-1β protein in T47D nuclear extract; format: cell-based, human
Procedure: Due to the low abundance of HIF-1α protein in whole cell extract, nuclear extract is prepared and the level of HIF-1α protein in the nuclear extract determined by Western blot. Briefly, exponentially grown T47D cells are exposed to compound 2 for 30 minutes. […] Nuclear extracts are prepared from control and treated cells, separated on a SDS/PAGE gel, the separated proteins transferred to a nitrocellulose membrane, incubated with the primary antibodies (anti-HIF-1α, and anti-HIF-1β monoclonal antibodies, Novus Biologicals), secondary antibody biotinylated anti-mouse immunoglobulin G and Vectastain ABC reagent (Vector Laboratories), and developed using ECL reagents (Amersham Biosciences). […] No change in HIF-1β protein level is observed across the treatments. It is reasonable to conclude that the selectivity of compound 2 towards hypoxia-activated HIF-1 is caused by selective blockade of the hypoxic induction of HIF-1 protein.

SF-268 = assay: NCI in vitro cell line screen (SRB), CNS Cancer SF-268; format: cell-based
Procedure: as §1

pGL3 Control = assay: luciferase expression from control plasmid pGL3 Control; format: cell-based, human
Procedure: The chemical structures of active compounds 1 and 2 are shown above. Compound 2 is the known compound manassantin B and 1 is a novel compound of the present invention. […] Similar results are obtained from separate experiments. The IC50 is 3 nM for 2 and 30 nM for 1. Complete inhibition is observed at 10 nM for 2 and 100 nM for 1.

KM12 = assay: NCI in vitro cell line screen (SRB), Colon Cancer KM12; format: cell-based
Procedure: as §1

SR = assay: NCI in vitro cell line screen (SRB), Leukemia SR; format: cell-based
Procedure: as §1

MCF7 = assay: NCI in vitro cell line screen (SRB), Breast Cancer MCF7; format: cell-based
Procedure: as §1

HL-60(TB) = assay: NCI in vitro cell line screen (SRB), Leukemia HL-60(TB); format: cell-based
Procedure: as §1

[1] = Homo sapiens, read-out: LC50 (the source's name)

Compound: COc1ccc([C@@H](O)[C@@H](C)Oc2ccc([C@H]3O[C@H](c4ccc(O[C@H](C)[C@H](O)c5ccc6c(c5)OCO6)c(OC)c4)[C@H](C)[C@H]3C)cc2OC)cc1OC [Compound 2, manassantin B]
- TGI (RXF 393): >1.00E−4 Molar
- GI50 (RXF 393; Homo sapiens): > 100 µM
- CC50 (RXF 393; [1]): > 100 µM
- Mean Optical Densities (RXF 393; Log10 Concentration −4.0 Molar): 0.930
- Percent Growth (RXF 393; Log10 Concentration −4.0 Molar): 53%
- Mean Optical Densities (RXF 393; Log10 Concentration −5.0 Molar): 0.993
- Percent Growth (RXF 393; Log10 Concentration −5.0 Molar): 62%
- Mean Optical Densities (RXF 393; Log10 Concentration −6.0 Molar): 1.170
- Percent Growth (RXF 393; Log10 Concentration −6.0 Molar): 85%
- Mean Optical Densities (RXF 393; Log10 Concentration −7.0 Molar): 1.267
- Percent Growth (RXF 393; Log10 Concentration −7.0 Molar): 98%
- Mean Optical Densities (RXF 393; Log10 Concentration −8.0 Molar): 1.226
- Percent Growth (RXF 393; Log10 Concentration −8.0 Molar): 92%
- TGI (UACC-62): >1.00E−4 Molar
- GI50 (UACC-62; Homo sapiens): 4.47 µM
- CC50 (UACC-62; [1]): > 100 µM
- Mean Optical Densities (UACC-62; Log10 Concentration −4.0 Molar): 0.573
- Percent Growth (UACC-62; Log10 Concentration −4.0 Molar): 16%
- Mean Optical Densities (UACC-62; Log10 Concentration −5.0 Molar): 0.697
- Percent Growth (UACC-62; Log10 Concentration −5.0 Molar): 35%
- Mean Optical Densities (UACC-62; Log10 Concentration −6.0 Molar): 0.971
- Percent Growth (UACC-62; Log10 Concentration −6.0 Molar): 78%
- Mean Optical Densities (UACC-62; Log10 Concentration −7.0 Molar): 1.072
- Percent Growth (UACC-62; Log10 Concentration −7.0 Molar): 93%
- Mean Optical Densities (UACC-62; Log10 Concentration −8.0 Molar): 1.038
- Percent Growth (UACC-62; Log10 Concentration −8.0 Molar): 88%
- TGI (K-562): >1.00E−4 Molar
- LC50 (concentration killing 50% of cells) (K-562; Homo sapiens, K562): > 100 µM
- Mean Optical Densities (K-562; Log10 Concentration −4.0 Molar): 0.327
- Percent Growth (K-562; Log10 Concentration −4.0 Molar): 28%
- Mean Optical Densities (K-562; Log10 Concentration −5.0 Molar): 0.394
- Percent Growth (K-562; Log10 Concentration −5.0 Molar): 37%
- Mean Optical Densities (K-562; Log10 Concentration −6.0 Molar): 0.561
- Percent Growth (K-562; Log10 Concentration −6.0 Molar): 61%
- Mean Optical Densities (K-562; Log10 Concentration −7.0 Molar): 0.500
- Percent Growth (K-562; Log10 Concentration −7.0 Molar): 53%
- Mean Optical Densities (K-562; Log10 Concentration −8.0 Molar): 0.470
- Percent Growth (K-562; Log10 Concentration −8.0 Molar): 48%
- TGI (SK-MEL-2): >1.00E−4 Molar
- GI50 (SK-MEL-2; Homo sapiens): > 100 µM
- CC50 (SK-MEL-2; [1]): > 100 µM
- Mean Optical Densities (SK-MEL-2; Log10 Concentration −4.0 Molar): 0.764
- Percent Growth (SK-MEL-2; Log10 Concentration −4.0 Molar): 54%
- Mean Optical Densities (SK-MEL-2; Log10 Concentration −5.0 Molar): 0.928
- Percent Growth (SK-MEL-2; Log10 Concentration −5.0 Molar): 78%
- Mean Optical Densities (SK-MEL-2; Log10 Concentration −6.0 Molar): 1.066
- Percent Growth (SK-MEL-2; Log10 Concentration −6.0 Molar): 98%
- Mean Optical Densities (SK-MEL-2; Log10 Concentration −7.0 Molar): 0.900
- Percent Growth (SK-MEL-2; Log10 Concentration −7.0 Molar): 74%
- Mean Optical Densities (SK-MEL-2; Log10 Concentration −8.0 Molar): 1.020
- Percent Growth (SK-MEL-2; Log10 Concentration −8.0 Molar): 92%
- HIF-1β protein level (HIF-1β protein): No change
- TGI (SF-268): >1.00E−4 Molar
- GI50 (SF-268; Homo sapiens): 4.96 µM
- CC50 (SF-268; [1]): > 100 µM
- Mean Optical Densities (SF-268; Log10 Concentration −4.0 Molar): 0.685
- Percent Growth (SF-268; Log10 Concentration −4.0 Molar): 27%
- Mean Optical Densities (SF-268; Log10 Concentration −5.0 Molar): 0.811
- Percent Growth (SF-268; Log10 Concentration −5.0 Molar): 40%
- Mean Optical Densities (SF-268; Log10 Concentration −6.0 Molar): 1.135
- Percent Growth (SF-268; Log10 Concentration −6.0 Molar): 73%
- Mean Optical Densities (SF-268; Log10 Concentration −7.0 Molar): 1.238
- Percent Growth (SF-268; Log10 Concentration −7.0 Molar): 83%
- Mean Optical Densities (SF-268; Log10 Concentration −8.0 Molar): 1.213
- Percent Growth (SF-268; Log10 Concentration −8.0 Molar): 81%
- luciferase expression from the pGL3-Control plasmid (pGL3 Control; 1,10-phenanthroline experiment (FIG. 5)): Neither compound exerts significant effect
- luciferase expression from the control plasmid (pGL3 Control) (pGL3 Control; hypoxia experiment (FIG. 3)): No statistically significant difference
- TGI (KM12): >1.00E−4 Molar
- GI50 (KM12; Homo sapiens): 7.78 µM
- CC50 (KM12; [1]): > 100 µM
- Mean Optical Densities (KM12; Log10 Concentration −4.0 Molar): 1.287
- Percent Growth (KM12; Log10 Concentration −4.0 Molar): 50%
- Mean Optical Densities (KM12; Log10 Concentration −5.0 Molar): 1.205
- Percent Growth (KM12; Log10 Concentration −5.0 Molar): 44%
- Mean Optical Densities (KM12; Log10 Concentration −6.0 Molar): 1.983
- Percent Growth (KM12; Log10 Concentration −6.0 Molar): 98%
- Mean Optical Densities (KM12; Log10 Concentration −7.0 Molar): 1.876
- Percent Growth (KM12; Log10 Concentration −7.0 Molar): 90%
- Mean Optical Densities (KM12; Log10 Concentration −8.0 Molar): 1.960
- Percent Growth (KM12; Log10 Concentration −8.0 Molar): 96%
- TGI (SR): >1.00E−4 Molar
- CC50 (SR; [1]): > 100 µM
- Mean Optical Densities (SR; Log10 Concentration −4.0 Molar): 0.429
- Percent Growth (SR; Log10 Concentration −4.0 Molar): 22%
- Mean Optical Densities (SR; Log10 Concentration −5.0 Molar): 0.561
- Percent Growth (SR; Log10 Concentration −5.0 Molar): 39%
- Mean Optical Densities (SR; Log10 Concentration −6.0 Molar): 0.685
- Percent Growth (SR; Log10 Concentration −6.0 Molar): 54%
- Mean Optical Densities (SR; Log10 Concentration −7.0 Molar): 0.637
- Percent Growth (SR; Log10 Concentration −7.0 Molar): 48%
- Mean Optical Densities (SR; Log10 Concentration −8.0 Molar): 0.616
- Percent Growth (SR; Log10 Concentration −8.0 Molar): 46%
- TGI (MCF7): 9.51E−6 Molar
- GI50 (MCF7; Homo sapiens): 0.36 µM
- CC50 (MCF7; [1]): > 100 µM
- Mean Optical Densities (MCF7; Log10 Concentration −4.0 Molar): 0.191
- Percent Growth (MCF7; Log10 Concentration −4.0 Molar): −40%
- Mean Optical Densities (MCF7; Log10 Concentration −5.0 Molar): 0.316
- Percent Growth (MCF7; Log10 Concentration −5.0 Molar): −1%
- Mean Optical Densities (MCF7; Log10 Concentration −6.0 Molar): 0.758
- Percent Growth (MCF7; Log10 Concentration −6.0 Molar): 42%
- Mean Optical Densities (MCF7; Log10 Concentration −7.0 Molar): 0.937
- Percent Growth (MCF7; Log10 Concentration −7.0 Molar): 60%
- Mean Optical Densities (MCF7; Log10 Concentration −8.0 Molar): 0.959
- Percent Growth (MCF7; Log10 Concentration −8.0 Molar): 62%
- TGI (HL-60(TB)): >1.00E−4 Molar
- GI50 (HL-60(TB); Homo sapiens): > 100 µM
- CC50 (HL-60(TB); [1]): > 100 µM
- Mean Optical Densities (HL-60(TB); Log10 Concentration −4.0 Molar): 0.426
- Percent Growth (HL-60(TB); Log10 Concentration −4.0 Molar): 58%
- Mean Optical Densities (HL-60(TB); Log10 Concentration −5.0 Molar): 0.491
- Percent Growth (HL-60(TB); Log10 Concentration −5.0 Molar): 76%
- Mean Optical Densities (HL-60(TB); Log10 Concentration −6.0 Molar): 0.555
- Percent Growth (HL-60(TB); Log10 Concentration −6.0 Molar): 93%
- Mean Optical Densities (HL-60(TB); Log10 Concentration −7.0 Molar): 0.543
- Percent Growth (HL-60(TB); Log10 Concentration −7.0 Molar): 90%
- Mean Optical Densities (HL-60(TB); Log10 Concentration −8.0 Molar): 0.469
- Percent Growth (HL-60(TB); Log10 Concentration −8.0 Molar): 70%
